# According to PMC5218480 (PLoS ONE, 2017):
# Test system: MV-4-11 cells
# Test: Gene expression microarray analysis (Affymetrix PrimeView) and GSEA
# Format: cell-based, human
# Set-up: RFU PODN (11730768_x_at) / Fold change /veh PODN (11730768_x_at) / RFU LINC00158 (11744669_a_at) / Fold change /veh LINC00158 (11744669_a_at) / RFU DUSP10 (11751237_a_at) / Fold change /veh DUSP10 (11751237_a_at) / RFU ID3 (11757404_x_at) / Fold change /veh ID3 (11757404_x_at) / RFU PLEKHG5 (11737974_s_at) / Fold change /veh PLEKHG5 (11737974_s_at) / RFU LRRC4B (11730491_at) / Fold change /veh LRRC4B (11730491_at) / RFU GIMAP4 (11747438_a_at) / Fold change /veh GIMAP4 (11747438_a_at) / RFU KRT8 (11758183_x_at) / Fold change /veh KRT8 (11758183_x_at) / RFU CNN1 (11734310_a_at) / Fold change /veh CNN1 (11734310_a_at) / RFU VPS37D (11726825_at) / Fold change /veh VPS37D (11726825_at) / RFU C10orf10 (11716522_x_at) / Fold change /veh C10orf10 (11716522_x_at) / RFU KIR2DL2 /// KIR2DL4 /// KIR2DL5A /// KIR2DL5B /// KIR2DS1 /// KIR2DS2 /// KIR2DS3 /// KIR2DS4 /// KIR3DL3 /// KIR3DL3 /// KIR3DS1 (11738374_at) / Fold change /veh KIR2DL2 /// KIR2DL4 /// KIR2DL5A /// KIR2DL5B /// KIR2DS1 /// KIR2DS2 /// KIR2DS3 /// KIR2DS4 /// KIR3DL3 /// KIR3DL3 /// KIR3DS1 (11738374_at) / RFU C1QL1 (11718748_at) / Fold change /veh C1QL1 (11718748_at) / RFU TMPRSS4 (11747572_a_at) / Fold change /veh TMPRSS4 (11747572_a_at) / RFU HAMP (11756126_x_at) / Fold change /veh HAMP (11756126_x_at) / RFU RNFT2 (11725882_a_at) / Fold change /veh RNFT2 (11725882_a_at) / RFU NR4A2 (11747474_a_at) / Fold change /veh NR4A2 (11747474_a_at) / RFU ABCC12 (11746883_a_at) / Fold change /veh ABCC12 (11746883_a_at) / RFU TMEM136 (11760407_x_at) / Fold change /veh TMEM136 (11760407_x_at) / RFU CLDN22 /// WWC2 (11732394_at) / Fold change /veh CLDN22 /// WWC2 (11732394_at) / RFU HLA-DPB1 (11760878_x_at) / Fold change /veh HLA-DPB1 (11760878_x_at) / RFU SPINT1 (11716480_a_at) / Fold change /veh SPINT1 (11716480_a_at) / RFU GAP43 (11754022_s_at) / Fold change /veh GAP43 (11754022_s_at) / RFU A4GNT (11735810_at) / Fold change /veh A4GNT (11735810_at) / RFU PRB3 (11715151_x_at) / Fold change /veh PRB3 (11715151_x_at) / RFU TUBB4B (11761932_at) / Fold change /veh TUBB4B (11761932_at) / RFU CAPN14 (11732068_a_at) / Fold change /veh CAPN14 (11732068_a_at) / RFU TMCC2 (11721928_a_at) / Fold change /veh TMCC2 (11721928_a_at) / RFU IRGQ (11745062_a_at) / Fold change /veh IRGQ (11745062_a_at) / RFU FAM174B (11720279_a_at) / Fold change /veh FAM174B (11720279_a_at) / RFU TMPRSS4 (11748680_a_at) / Fold change /veh TMPRSS4 (11748680_a_at) / RFU FAM212B (11763350_a_at) / Fold change /veh FAM212B (11763350_a_at) / RFU PLEKHG5 (11743358_a_at) / Fold change /veh PLEKHG5 (11743358_a_at) / RFU ZSCAN30 (11745921_a_at) / Fold change /veh ZSCAN30 (11745921_a_at) / RFU CMKLR1 (11741424_a_at) / Fold change /veh CMKLR1 (11741424_a_at) / RFU LOC101060620 /// MAPK8IP1 (11723275_at) / Fold change /veh LOC101060620 /// MAPK8IP1 (11723275_at) / RFU SPTSSB (11747773_x_at) / Fold change /veh SPTSSB (11747773_x_at) / RFU PRSS12 (11739890_at) / Fold change /veh PRSS12 (11739890_at) / RFU BIN1 (11741810_x_at) / Fold change /veh BIN1 (11741810_x_at) / RFU WNT11 (11732464_a_at) / Fold change /veh WNT11 (11732464_a_at) / RFU C10orf10 (11716521_a_at) / Fold change /veh C10orf10 (11716521_a_at) / RFU C5orf56 (11738089_at) / Fold change /veh C5orf56 (11738089_at) / RFU CYB561 (11721691_x_at) / Fold change /veh CYB561 (11721691_x_at) / RFU ANKRD19P (11752326_a_at) / Fold change /veh ANKRD19P (11752326_a_at) / RFU OR2T12 /// OR2T33 /// OR2T8 (11738714_s_at) / Fold change /veh OR2T12 /// OR2T33 /// OR2T8 (11738714_s_at) / RFU VCAN (11748164_a_at) / Fold change /veh VCAN (11748164_a_at) / RFU JSRP1 (11732532_at) / Fold change /veh JSRP1 (11732532_at) / RFU KRTAP10-11 (11738290_x_at) / Fold change /veh KRTAP10-11 (11738290_x_at) / RFU MYO3A (11730013_a_at) / Fold change /veh MYO3A (11730013_a_at) / RFU EBF3 (11725865_a_at) / Fold change /veh EBF3 (11725865_a_at) / RFU CAMK2N1 (11719241_x_at) / Fold change /veh CAMK2N1 (11719241_x_at) / RFU C5orf56 (11738088_a_at) / Fold change /veh C5orf56 (11738088_a_at) / RFU OLFML3 (11715873_a_at) / Fold change /veh OLFML3 (11715873_a_at) / RFU LOC100653217 /// NTM (11731650_a_at) / Fold change /veh LOC100653217 /// NTM (11731650_a_at) / RFU MAPK11 (11762145_a_at) / Fold change /veh MAPK11 (11762145_a_at) / RFU FIZ1 (11724087_x_at) / Fold change /veh FIZ1 (11724087_x_at) / RFU OASL (11726364_x_at) / Fold change /veh OASL (11726364_x_at) / RFU SOX15 (11748057_x_at) / Fold change /veh SOX15 (11748057_x_at) / RFU CD79A (11719716_a_at) / Fold change /veh CD79A (11719716_a_at) / RFU HIST1H1D (11736915_at) / Fold change /veh HIST1H1D (11736915_at) / RFU CASKIN2 (11723855_a_at) / Fold change /veh CASKIN2 (11723855_a_at) / RFU LOC730098 (11760151_x_at) / Fold change /veh LOC730098 (11760151_x_at) / RFU OR4N2 (11742367_at) / Fold change /veh OR4N2 (11742367_at) / RFU PRRT2 (11749266_a_at) / Fold change /veh PRRT2 (11749266_a_at) / RFU SNX32 (11753110_a_at) / Fold change /veh SNX32 (11753110_a_at) / RFU CDHR5 (11726645_a_at) / Fold change /veh CDHR5 (11726645_a_at) / RFU RCAN1 (11760418_a_at) / Fold change /veh RCAN1 (11760418_a_at) / RFU FAM167A (11723789_a_at) / Fold change /veh FAM167A (11723789_a_at) / RFU FAM26E (11764081_at) / Fold change /veh FAM26E (11764081_at) / RFU ISYNA1 (11749810_s_at) / Fold change /veh ISYNA1 (11749810_s_at) / RFU ACY1 (11761880_at) / Fold change /veh ACY1 (11761880_at) / RFU 11764098_at / Fold change /veh 11764098_at / RFU SAMD14 (11745864_x_at) / Fold change /veh SAMD14 (11745864_x_at) / RFU NPB (11741838_a_at) / Fold change /veh NPB (11741838_a_at) / RFU TMPRSS6 (11731388_a_at) / Fold change /veh TMPRSS6 (11731388_a_at) / RFU KRTAP10-2 (11738614_at) / Fold change /veh KRTAP10-2 (11738614_at) / RFU ARHGAP8 /// PRR5-ARHGAP8 (11727945_x_at) / Fold change /veh ARHGAP8 /// PRR5-ARHGAP8 (11727945_x_at) / RFU KRTAP5-7 /// NADSYN1 (11734609_at) / Fold change /veh KRTAP5-7 /// NADSYN1 (11734609_at) / RFU RASL12 (11751679_a_at) / Fold change /veh RASL12 (11751679_a_at) / RFU CDKN2B (11736163_a_at) / Fold change /veh CDKN2B (11736163_a_at) / RFU PRF1 (11729649_at) / Fold change /veh PRF1 (11729649_at) / RFU, ZNF638 /// ZNF638-IT1 / Fold change vs veh, ZNF638 /// ZNF638-IT1 / RFU, PANK3 / Fold change vs veh, PANK3 / RFU, SH3YL1 / Fold change vs veh, SH3YL1 / RFU, ZEB2 / Fold change vs veh, ZEB2 / RFU, NRIP1 / Fold change vs veh, NRIP1 / RFU, PTTG1IP / Fold change vs veh, PTTG1IP / RFU, CAPN2 / Fold change vs veh, CAPN2 / RFU, MED14 / Fold change vs veh, MED14 / RFU, SNORA58 / Fold change vs veh, SNORA58 / RFU, C1orf63 / Fold change vs veh, C1orf63 / RFU, LRRFIP1 / Fold change vs veh, LRRFIP1 / RFU, NDUFAF7 / Fold change vs veh, NDUFAF7 / RFU, SLC12A2 / Fold change vs veh, SLC12A2 / RFU, IBTK / Fold change vs veh, IBTK / RFU, ESF1 / Fold change vs veh, ESF1 / Fold change vs veh, TMEM50B / RFU, TAOK1 / Fold change vs veh, TAOK1 / RFU, ACBD3 / Fold change vs veh, ACBD3 / RFU, TMA16 / Fold change vs veh, TMA16 / RFU, RWDD3 / Fold change vs veh, RWDD3 / RFU, BCAT1 / Fold change vs veh, BCAT1 / RFU, EDEM3 / Fold change vs veh, EDEM3 / RFU, TMEM33 / Fold change vs veh, TMEM33 / RFU, WDR75 / Fold change vs veh, WDR75 / RFU, AHCTF1 / Fold change vs veh, AHCTF1 / RFU, TFRC / Fold change vs veh, TFRC / RFU, ZDHHC17 / Fold change vs veh, ZDHHC17 / RFU, NOM1 / Fold change vs veh, NOM1 / RFU, ARL8B / Fold change vs veh, ARL8B / RFU, ZBTB11 / Fold change vs veh, ZBTB11 / RFU, TAMM41 / Fold change vs veh, TAMM41 / RFU, KIAA1704 /// LOC100996395 / Fold change vs veh, KIAA1704 /// LOC100996395 / RFU, ING1 / Fold change vs veh, ING1 / RFU, TRMT61B / Fold change vs veh, TRMT61B / RFU, FUBP3 / Fold change vs veh, FUBP3 / RFU, TP53 / Fold change vs veh, TP53 / RFU, TNKS2 / Fold change vs veh, TNKS2 / RFU, ZFP14 / Fold change vs veh, ZFP14 / RFU, ACTR2 / Fold change vs veh, ACTR2 / RFU, PPP3R1 / Fold change vs veh, PPP3R1 / RFU, PIK3R1 / Fold change vs veh, PIK3R1 / RFU, HNRNPA1 / Fold change vs veh, HNRNPA1 / RFU, RNF170 / Fold change vs veh, RNF170 / RFU, ZNF28 / Fold change vs veh, ZNF28 / RFU, RNGTT / Fold change vs veh, RNGTT / RFU, OGT / Fold change vs veh, OGT / RFU, BRD1 / Fold change vs veh, BRD1 / RFU, MARS / Fold change vs veh, MARS / RFU, ZNF655 / Fold change vs veh, ZNF655 / RFU, FAHD1 / Fold change vs veh, FAHD1 / RFU, BDP1 / Fold change vs veh, BDP1 / RFU, LRRCC1 / Fold change vs veh, LRRCC1 / RFU, ARID1A / Fold change vs veh, ARID1A / RFU, ZNF146 / Fold change vs veh, ZNF146 / RFU, ZNF330 / Fold change vs veh, ZNF330 / RFU, GPN3 / Fold change vs veh, GPN3 / RFU, C9orf123 / Fold change vs veh, C9orf123 / RFU, N4BP2L2 / Fold change vs veh, N4BP2L2 / RFU, ARFIP1 / Fold change vs veh, ARFIP1 / RFU, FAM179B / Fold change vs veh, FAM179B / RFU, BCL10 / Fold change vs veh, BCL10 / RFU, UHRF1BP1L / Fold change vs veh, UHRF1BP1L / RFU, BET1 / Fold change vs veh, BET1 / RFU, CNOT2 / Fold change vs veh, CNOT2 / RFU, ZNF268 / Fold change vs veh, ZNF268 / Fold change vs veh, ZNF507 / RFU, DGCR2 / Fold change vs veh, DGCR2 / RFU, WDSUB1 / Fold change vs veh, WDSUB1 / Fold change vs veh, HSP90B1 /// MIR3652 / RFU, ADSS / Fold change vs veh, ADSS / RFU, GK / Fold change vs veh, GK / RFU, ZNF148 / Fold change vs veh, ZNF148 / RFU, TAF9 / Fold change vs veh, TAF9 / RFU, SLC1A5 / Fold change vs veh, SLC1A5 / RFU, SLMO2 / Fold change vs veh, SLMO2 / RFU, ABCC4 / Fold change vs veh, ABCC4 / RFU, LOC101060439 /// RAP1B / Fold change vs veh, LOC101060439 /// RAP1B / RFU, RFX7 / Fold change vs veh, RFX7 / RFU, GTPBP10 / Fold change vs veh, GTPBP10 / RFU, CNEP1R1 / Fold change vs veh, CNEP1R1 / RFU, BIVM-ERCC5 /// ERCC5 / Fold change vs veh, BIVM-ERCC5 /// ERCC5 / RFU, ILF3 / Fold change vs veh, ILF3 / RFU 11762660_at / Fold change /veh 11762660_at / RFU VCAN (11757783_s_at) / Fold change /veh VCAN (11757783_s_at) / RFU DDX43 (11728927_at) / Fold change /veh DDX43 (11728927_at) / RFU KRT8 (11758188_x_at) / Fold change /veh KRT8 (11758188_x_at) / RFU NKD1 (11759106_at) / Fold change /veh NKD1 (11759106_at) / RFU SRD5A1 (11742802_a_at) / Fold change /veh SRD5A1 (11742802_a_at) / RFU TPSAB1 /// TPSB2 (11721975_s_at) / Fold change /veh TPSAB1 /// TPSB2 (11721975_s_at) / RFU GSTM3 (11746129_a_at) / Fold change /veh GSTM3 (11746129_a_at) / RFU IL23R (11737362_x_at) / Fold change /veh IL23R (11737362_x_at) / RFU TMEM51 (11727254_a_at) / Fold change /veh TMEM51 (11727254_a_at) / RFU PIWIL2 (11732686_x_at) / Fold change /veh PIWIL2 (11732686_x_at) / RFU ORM1 (11744905_x_at) / Fold change /veh ORM1 (11744905_x_at) / RFU CCDC152 (11743942_at) / Fold change /veh CCDC152 (11743942_at) / RFU ECM1 (11717891_a_at) / Fold change /veh ECM1 (11717891_a_at) / RFU IL23R (11748794_a_at) / Fold change /veh IL23R (11748794_a_at) / RFU TNFAIP8L3 (11732012_x_at) / Fold change /veh TNFAIP8L3 (11732012_x_at) / RFU MBOAT4 (11741988_at) / Fold change /veh MBOAT4 (11741988_at) / RFU 11764193_at / Fold change /veh 11764193_at / RFU TMEM53 (11763286_at) / Fold change /veh TMEM53 (11763286_at) / RFU MAGEB2 (11727129_at) / Fold change /veh MAGEB2 (11727129_at) / RFU TMEM200A (11744735_a_at) / Fold change /veh TMEM200A (11744735_a_at) / RFU CCDC152 (11751479_a_at) / Fold change /veh CCDC152 (11751479_a_at) / RFU FAM211A (11726209_a_at) / Fold change /veh FAM211A (11726209_a_at) / RFU RGS16 (11746705_a_at) / Fold change /veh RGS16 (11746705_a_at) / RFU VCAN (11755009_s_at) / Fold change /veh VCAN (11755009_s_at) / RFU RHOB (11743442_s_at) / Fold change /veh RHOB (11743442_s_at) / RFU RGS16 (11720943_a_at) / Fold change /veh RGS16 (11720943_a_at) / RFU RGS16 (11720944_at) / Fold change /veh RGS16 (11720944_at) / RFU, VPS4B / Fold change vs veh, VPS4B / RFU, CREB1 / Fold change vs veh, CREB1 / RFU, DNAJC13 / Fold change vs veh, DNAJC13 / RFU, GNAQ / Fold change vs veh, GNAQ / RFU, CDK5R1 / Fold change vs veh, CDK5R1 / RFU, ZRANB3 / Fold change vs veh, ZRANB3 / RFU, CUL4A / Fold change vs veh, CUL4A / RFU, CCNY / Fold change vs veh, CCNY / RFU, UFL1 / Fold change vs veh, UFL1 / RFU, COG3 / Fold change vs veh, COG3 / RFU, DIAPH2 / Fold change vs veh, DIAPH2 / RFU, SKA2 / Fold change vs veh, SKA2 / RFU, AFF3 / Fold change vs veh, AFF3 / RFU, LMF1 / Fold change vs veh, LMF1 / RFU, IPO11 / Fold change vs veh, IPO11 / RFU, DFFB / Fold change vs veh, DFFB / RFU, FOXP1 / Fold change vs veh, FOXP1 / RFU, CARD8 / Fold change vs veh, CARD8 / RFU, STRN3 / Fold change vs veh, STRN3 / RFU, ADK / Fold change vs veh, ADK / RFU, RASSF2 / Fold change vs veh, RASSF2 / RFU, WIPF1 / Fold change vs veh, WIPF1 / RFU, LARP1B / Fold change vs veh, LARP1B / RFU, RASA1 / Fold change vs veh, RASA1 / RFU, RB1 / Fold change vs veh, RB1 / RFU, PPFIA1 / Fold change vs veh, PPFIA1 / RFU, MAT2A / Fold change vs veh, MAT2A / RFU, CCT5 / Fold change vs veh, CCT5 / RFU, WDR92 / Fold change vs veh, WDR92 / RFU, CUX1 / Fold change vs veh, CUX1 / RFU, TTC7A / Fold change vs veh, TTC7A / RFU, TMEM135 / Fold change vs veh, TMEM135 / RFU, DEPTOR / Fold change vs veh, DEPTOR / RFU, CPM / Fold change vs veh, CPM / RFU, DNAJB6 / Fold change vs veh, DNAJB6 / RFU, CACNA2D3 / Fold change vs veh, CACNA2D3 / RFU, DTX4 / Fold change vs veh, DTX4 / RFU, TFCP2 / Fold change vs veh, TFCP2 / RFU, GMCL1 /// GMCL1P1 / Fold change vs veh, GMCL1 /// GMCL1P1 / RFU, AEBP2 / Fold change vs veh, AEBP2 / RFU, SNHG1 /// SNORD22 /// SNORD25 /// SNORD26 /// SNORD27 /// SNORD28 /// SNORD29 /// SNORD31 / Fold change vs veh, SNHG1 /// SNORD22 /// SNORD25 /// SNORD26 /// SNORD27 /// SNORD28 /// SNORD29 /// SNORD31 / Fold change (Aza/veh), C12orf56 (ProbeSet 11735607_a_at) / Fold change (ACY-1035/veh), C12orf56 (ProbeSet 11735607_a_at) / Fold change (Aza/veh), FGFR1OP (ProbeSet 11751329_s_at) / Fold change (ACY-1035/veh), FGFR1OP (ProbeSet 11751329_s_at) / Fold change (Aza/veh), VPS36 (ProbeSet 11739960_a_at) / Fold change (ACY-1035/veh), VPS36 (ProbeSet 11739960_a_at) / RFU SYPL1 (11715823_x_at) / Fold change /veh SYPL1 (11715823_x_at) / RFU IGFBP7 (11715501_s_at) / Fold change /veh IGFBP7 (11715501_s_at) / RFU REEP3 (11722064_at) / Fold change /veh REEP3 (11722064_at) / RFU IGLL1 (11728026_x_at) / Fold change /veh IGLL1 (11728026_x_at): dose or concentration left out as unconfirmed
# Conditions: ProbeSet 11720566_at; LIST D
smiles,measurement,value
Nc1ncn([C@@H]2O[C@H](CO)[C@@H](O)[C@H]2O)c(=O)n1 [azacitidine],"RFU, BCAT1",650.05 RFU
